# Measured values published in the supplement of paper PMC11061612.
# Key:
# Test in all cases: Bliss excess, mean over the matrix (fraction); higher = more synergy
# [1] = tested on: HLE (Hepatocellular Carcinoma)
# Outline: (§1)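 Cell lines grown in DMEM/F12 or RPMI with 10% FBS were plated in 1536-well plates and held 24 hours at 37°C, 5% CO2 before 72 hours of exposure to two-drug dose matrices, with DMSO typically at 0.2%. CellTiter-Glo 2.0 luminescence gave viability, which was converted to inhibition. Vehicle wells were set to 0 and blank wells to 1. Combination Emax is the second-highest inhibition in the matrix, and Bliss excess is the observed combination effect minus the expected EA + EB − EA·EB, where EA and EB are the single-agent effects.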
# [2] = tested on: RCC10RGB (Kidney Carcinoma)
# Outline: as §1
# Saos-2 (Osteosarcoma) = tested on: Saos-2 (Osteosarcoma)
# Outline: as §1
# CS1 (Chondrosarcoma) = tested on: CS1 (Chondrosarcoma)
# Outline: as §1
# [3] = tested on: SK-UT-1 (Other Solid Carcinomas)
# Outline: as §1
# [4] = tested on: HOP-92 (Non-Small Cell Lung Carcinoma)
# Outline: as §1
# [5] = tested on: HCC1143 (Breast Carcinoma)
# Outline: as §1
# [6] = tested on: NCI-H1688 (Small Cell Lung Carcinoma)
# Outline: as §1
# [7] = tested on: MEG-01 (Chronic Myelogenous Leukemia)
# Outline: as §1
# [8] = tested on: ETK-1 (Biliary Tract Carcinoma)
# Outline: as §1
# HCC38 (Breast Carcinoma) = tested on: HCC38 (Breast Carcinoma)
# Outline: as §1
# [9] = tested on: CAL-39 (Other Solid Carcinomas)
# Outline: as §1
# [10] = tested on: DOK (Oral Cavity Carcinoma)
# Outline: as §1
# [11] = tested on: D-283MED (Other Solid Carcinomas)
# Outline: as §1
# [12] = tested on: SNG-M (Endometrial Carcinoma)
# Outline: as §1
# [13] = tested on: P31-FUJ (Acute Myeloid Leukemia)
# Outline: as §1
# [14] = tested on: GDM-1 (Acute Myeloid Leukemia)
# Outline: as §1
# MCF7 (Breast Carcinoma) = tested on: MCF7 (Breast Carcinoma)
# Outline: as §1
# SK-MEL-1 (Melanoma) = tested on: SK-MEL-1 (Melanoma)
# Outline: as §1
# [15] = tested on: HCC-827 (Lung Adenocarcinoma)
# Outline: as §1
Structure (SMILES),Bliss excess [1],Bliss excess [2],Bliss excess (Saos-2 (Osteosarcoma)),Bliss excess (CS1 (Chondrosarcoma)),Bliss excess [3],Bliss excess [4],Bliss excess [5],Bliss excess [6],Bliss excess [7],Bliss excess [8],Bliss excess (HCC38 (Breast Carcinoma)),Bliss excess [9],Bliss excess [10],Bliss excess [11],Bliss excess [12],Bliss excess [13],Bliss excess [14],Bliss excess (MCF7 (Breast Carcinoma)),Bliss excess (SK-MEL-1 (Melanoma)),Bliss excess [15]
"CC1(C)CCC(CN2CCN(c3ccc(C(=O)NS(=O)(=O)c4ccc(NCC5CCOCC5)c([N+](=O)[O-])c4)c(Oc4cnc5[nH]ccc5c4)c3)CC2)=C(c2ccc(Cl)cc2)C1 [Venetoclax] + CN(C)CCCOc1ccc(-c2ccc3ncc4c(c3c2)n(C2CCOCC2)c(=O)n4C)cn1 [AZD0156] (first compound max 1 µM, 7x7, partner max 1 µM)",-0.0463,-0.0677,-0.0364,0.0599,-0.013,0.0047,-0.0051,0.0209,-0.0291,-0.021,0.0361,-0.0214,-0.0184,0.0189,-0.06,-0.0179,-0.0235,-0.0152,-0.0397,-0.0453
"CS(=O)(=O)CCNCc1ccc(-c2ccc3ncnc(Nc4ccc(OCc5cccc(F)c5)c(Cl)c4)c3c2)o1 [Lapatinib] + C[C@@H](Oc1cc(-c2cnn(C3CCNCC3)c2)cnc1N)c1c(Cl)ccc(F)c1Cl [Crizotinib] (first compound max 10 µM, 7x7, partner max 10 µM)",-0.072,-0.0298,-0.0452,-0.0093,-0.0392,-0.0051,-0.0312,-0.0764,-0.0083,-0.0596,-0.0049,0.026,-0.0302,-0.0496,-0.0413,-0.142,-0.0027,-0.0386,-0.0827,-0.038
"CC(=O)c1c(C)c2cnc(Nc3ccc(N4CCNCC4)cn3)nc2n(C2CCCC2)c1=O [Palbociclib] + Cn1cnc2c(F)c(Nc3ccc(Br)cc3Cl)c(C(=O)NOCCO)cc21 [Selumetinib] (first compound max 10 µM, 7x7, partner max 10 µM)",-0.0418,-0.0121,-0.0402,0.0219,-0.033,0.0142,0.0325,-0.0471,0.0404,-0.0351,-0.0291,0.151,0.0057,0.0045,-0.117,0.0152,0.0343,-0.0013,-0.0559,-0.0172
"CC1(C)CCC(CN2CCN(c3ccc(C(=O)NS(=O)(=O)c4ccc(NCC5CCOCC5)c([N+](=O)[O-])c4)c(Oc4cnc5[nH]ccc5c4)c3)CC2)=C(c2ccc(Cl)cc2)C1 [Venetoclax] + C=CCn1c(=O)c2cnc(Nc3ccc(N4CCN(C)CC4)cc3)nc2n1-c1cccc(C(C)(C)O)n1 [AZD1775] (first compound max 1 µM, partner max 1 µM)",-0.0648,-0.0374,0.0339,0.0589,0.0562,0.0046,-0.0192,-0.0067,0.0146,-0.0661,0.0136,-0.0308,-0.0582,0.0257,-0.0002,0.0685,0.132,-0.0227,-0.0539,-0.0764
"C[C@@H](c1ccc2nccn2c1)n1nnc2ncc(-c3cnn(C)c3)nc21 [Savolitinib] + CC1(C)CCC(CN2CCN(c3ccc(C(=O)NS(=O)(=O)c4ccc(NCC5CCOCC5)c([N+](=O)[O-])c4)c(Oc4cnc5[nH]ccc5c4)c3)CC2)=C(c2ccc(Cl)cc2)C1 [Venetoclax] (first compound max 1 µM, 7x7, partner max 1 µM)",-0.0232,-0.0768,-0.0259,-0.0056,-0.0234,-0.0181,-0.0361,-0.047,-0.0223,-0.0777,-0.0111,-0.0687,-0.0578,-0.0144,-0.0421,-0.102,-0.0236,-0.042,-0.0144,-0.0293
"C=CCn1c(=O)c2cnc(Nc3ccc(N4CCN(C)CC4)cc3)nc2n1-c1cccc(C(C)(C)O)n1 [AZD1775] + C[C@@H]1COCCN1C2=NC(=NC(=C2)C3(CC3)[S@](=N)(=O)C)C4=C5C=CNC5=NC=C4 [AZD6738] (first compound max 1 µM, partner max 10 µM)",-0.0148,-0.137,0.0071,0.0087,0.0498,-0.0231,0.0108,0.0326,-0.0005,0.0427,-0.0805,0.0822,0.0081,0.0327,-0.0128,-0.008,0.0041,0.0332,-0.0125,-0.0286
"CN(CCO)CC[C@H](CSc1ccccc1)Nc1ccc(S(=O)(=O)NC(=O)c2ccc(N3CCC([C@@H](O)c4ccccc4-c4ccc(Cl)cc4)CC3)cc2)cc1S(=O)(=O)C(F)(F)F [AZD4320] + Cc1cc2ncnn2cc1Nc1ncc2c(n1)n(C1CCOCC1)c(=O)n2C [AZD7648] (first compound max 1 µM, 7x7, partner max 10 µM)",-0.0295,-0.077,-0.0389,-0.02,-0.0195,-0.0034,-0.0021,0.0024,0.0304,-0.0639,-0.0694,-0.03,-0.0178,0.0051,-0.0007,-0.0229,-0.0041,-0.0357,-0.025,-0.0339
"Cc1cc2ncnn2cc1Nc1ncc2c(n1)n(C1CCOCC1)c(=O)n2C [AZD7648] + C[C@@H]1COCCN1C2=NC(=NC(=C2)C3(CC3)[S@](=N)(=O)C)C4=C5C=CNC5=NC=C4 [AZD6738] (first compound max 10 µM, 7x7, partner max 10 µM)",0.0049,0.0076,-0.0169,0.0024,0.0471,0.0104,-0.0328,0.0136,-0.0473,-0.0173,0.0245,0.0081,0.0441,-0.1,-0.0217,0.0131,-0.022,-0.0192,-0.0388,0.0048
"COc1cccc(OCCCN)c1-c1cc(Nc2cnc(C#N)cn2)n[nH]1 [Prexasertib] + O=C(c1cc(Cc2n[nH]c(=O)c3ccccc23)ccc1F)N1CCN(C(=O)C2CC2)CC1 [Olaparib] (first compound max 1 µM, 7x7, partner max 10 µM)",-0.0458,-0.0784,-0.0123,-0.0635,-0.0422,-0.0692,-0.18,-0.0135,-0.0981,0.0573,-0.0641,-0.008,-0.0269,-0.0232,-0.124,-0.0141,-0.0516,-0.0236,-0.0435,-0.0262
"Cn1cnc2c(F)c(Nc3ccc(Br)cc3Cl)c(C(=O)NOCCO)cc21 [Selumetinib] + CC(C)n1c(=O)n(C)c2cnc3cc(F)c(-c4ccc(OCCCN5CCCCC5)nc4)cc3c21 [AZD1390] (first compound max 10 µM, 7x7, partner max 0.3 µM)",-0.0325,-0.0004,-0.0577,-0.0172,-0.0066,-0.0112,0.013,-0.016,0.0034,-0.0432,-0.0306,0.0025,0.021,-0.0123,-0.0348,0.0398,-0.0523,-0.0452,-0.0378,-0.0306
"CC1(C)CCC(CN2CCN(c3ccc(C(=O)NS(=O)(=O)c4ccc(NCC5CCOCC5)c([N+](=O)[O-])c4)c(Oc4cnc5[nH]ccc5c4)c3)CC2)=C(c2ccc(Cl)cc2)C1 [Venetoclax] + C[C@@H](Nc1cc(F)cc(F)c1)c1cc(C(=O)N(C)C)cc2c(=O)cc(N3CCOCC3)oc12 [AZD8186] (first compound max 1 µM, 7x7, partner max 3 µM)",-0.0364,-0.0866,0,-0.0923,-0.0141,-0.0212,-0.0141,-0.0385,-0.0492,-0.0284,-0.0075,-0.106,-0.0548,-0.0149,-0.0551,0.0178,0.15,-0.0499,-0.0239,-0.0146
"COc1cc2c(cc1OCCCCCOc1cc3c(cc1OC)C(=O)N1C=C(C)C[C@H]1C=N3)N=C[C@@H]1CC(C)=CN1C2=O [SG3199] + O=C(c1cc(Cc2n[nH]c(=O)c3ccccc23)ccc1F)N1CCN(C(=O)C2CC2)CC1 [Olaparib] (first compound max 0.001 µM, 7x7, partner max 10 µM)",-0.0323,-0.052,-0.0277,-0.0451,-0.0181,-0.0048,-0.0216,-0.0264,-0.0326,-0.0021,-0.0356,-0.0306,-0.0368,-0.0347,-0.0222,-0.0645,-0.0311,-0.0444,-0.0239,-0.0194
"CN(CCO)CC[C@H](CSc1ccccc1)Nc1ccc(S(=O)(=O)NC(=O)c2ccc(N3CCC([C@@H](O)c4ccccc4-c4ccc(Cl)cc4)CC3)cc2)cc1S(=O)(=O)C(F)(F)F [AZD4320] + C1CN(CCC1(C(=O)N[C@@H](CCO)C2=CC=C(C=C2)Cl)N)C3=NC=NC4=C3C=CN4 [Capivasertib] (first compound max 1 µM, 7x7, partner max 3 µM)",-0.126,-0.0576,0.0035,-0.022,-0.0006,-0.038,-0.0314,-0.0173,-0.0223,-0.0305,0.0057,-0.0296,-0.0554,0.0139,-0.054,0.0452,-0.0206,-0.0383,-0.0281,-0.0644
"CC(=O)c1c(C)c2cnc(Nc3ccc(N4CCNCC4)cn3)nc2n(C2CCCC2)c1=O [Palbociclib] + CC1(C)CCC(CN2CCN(c3ccc(C(=O)NS(=O)(=O)c4ccc(NCC5CCOCC5)c([N+](=O)[O-])c4)c(Oc4cnc5[nH]ccc5c4)c3)CC2)=C(c2ccc(Cl)cc2)C1 [Venetoclax] (first compound max 10 µM, 7x7, partner max 1 µM)",-0.0399,-0.0012,-0.0417,-0.0457,-0.0343,-0.0166,-0.0237,-0.0505,-0.0096,-0.0207,-0.0437,-0.0566,-0.0542,0.0132,-0.0501,-0.073,0.0557,-0.0334,-0.0353,-0.0379
